# Results as given in patent US5061794A, “Cephalosporin derivatives, and antibacterial agents” (priority 1986, dated 1991).
# Read-outs that look alike come from different tables or passages of the source.
# Experiments:
# Ps. cepacia 23 = experiment: in vitro antibacterial activity, agar plate dilution method (MIC); type: cell-based, Pseudomonas cepacia; conditions: Ps. cepacia 23, 10^6 CFU/ml; for MIC: Burkholderia cepacia, 16 h, read-out: Minimum Inhibitory Concentration (MIC)
# Procedure, shortened: (§1)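 MIC in μg/ml, read after 16 h at 37° C. on Mueller Hinton agar carrying graded compound levels; inoculum 10^6 CFU/ml from overnight Mueller Hinton broth.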
# S. marcescens IAM 1184 = experiment: as above; type: cell-based; conditions: S. marcescens IAM 1184, 10^6 CFU/ml; for MIC: Serratia marcescens, IAM1184, 16 h, read-out: Minimum Inhibitory Concentration (MIC)
# Procedure, shortened: as §1
# K. pneumoniae No. 42 = experiment: as above; type: cell-based; conditions: *K. pneumoniae No. 42, lactamase-producing strain; 10^6 CFU/ml
# Procedure, shortened: as §1
# P. vulgaris HX-19 = experiment: as above; type: cell-based; conditions: P. vulgaris HX-19, 10^6 CFU/ml
# Procedure, shortened: as §1
# E. cloacae 963 = experiment: as above; type: cell-based; conditions: 10^6 CFU/ml
# Procedure, shortened: as §1
# P. vulgaris No. 33 = experiment: as above; type: cell-based; conditions: *P. vulgaris No. 33, lactamase-producing strain; 10^6 CFU/ml
# Procedure, shortened: as §1
# M. morganii GN5407 = experiment: as above; type: cell-based; conditions: *M. morganii GN5407, lactamase-producing strain; 10^6 CFU/ml
# Procedure, shortened: as §1
# S. aureus 209P NIHJ-JC1 = experiment: as above; type: cell-based; conditions: S. aureus 209P NIHJ-JC1, 10^6 CFU/ml, 37° C., 16 hours
# Procedure, shortened: as §1
# K. oxytoca GN10650 = experiment: as above; type: cell-based; conditions: *K. oxytoca GN10650, lactamase-producing strain; 10^6 CFU/ml
# Procedure, shortened: as §1
# E. cloacae Nek 39 = experiment: as above; type: cell-based; conditions: 10^6 CFU/ml; for Minimum Inhibitory Concentration (MIC): *E. cloacae Nek 39, lactamase-producing strain
# Procedure, shortened: as §1
# K. pneumoniae PCI-602 = experiment: as above; type: cell-based; conditions: 10^6 CFU/ml; for Minimum Inhibitory Concentration (MIC): K. pneumoniae PCI-602
# Procedure, shortened: as §1
# S. marcescens No. 16-2 = experiment: as above; type: cell-based; conditions: 10^6 CFU/ml; for Minimum Inhibitory Concentration (MIC): *S. marcescens No. 16-2, lactamase-producing strain
# Procedure, shortened: as §1
# E. coli GN5482 = experiment: as above; type: cell-based; conditions: for Minimum Inhibitory Concentration (MIC): *E. coli GN5482, lactamase-producing strain; for MIC: Escherichia coli, GN5482, 16 h
# Procedure, shortened: as §1
# E. coli NIHJ JC2 = experiment: as above; type: cell-based; conditions: E. coli NIHJ JC2; 10^6 CFU/ml, 37° C., 16 hours
# Procedure, shortened: as §1
# Ps. aeruginosa AK 109 = experiment: as above; type: cell-based, Pseudomonas aeruginosa; conditions: for Minimum Inhibitory Concentration (MIC): Ps. aeruginosa AK 109, 10^6 CFU/ml; for MIC: Pseudomonas aeruginosa, AK109, 16 h, read-out: Minimum Inhibitory Concentration (MIC)
# Procedure, shortened: as §1
# Ps. aeruginosa IF03445 = experiment: as above; type: cell-based, Pseudomonas aeruginosa; conditions: 10^6 CFU/ml; for Minimum Inhibitory Concentration (MIC): Ps. aeruginosa IF03445
# Procedure, shortened: as §1
# Ps. aeruginosa AKR17 = experiment: as above; type: cell-based, Pseudomonas aeruginosa; conditions: for MIC: Pseudomonas aeruginosa, AKR17, 16 h
# Procedure, shortened: as §1
# A. calcoaceticus No. 4 = experiment: as above; type: cell-based, Acinetobacter calcoaceticus; conditions: 10^6 CFU/ml; for Minimum Inhibitory Concentration (MIC): A. calcoaceticus No. 4
# Procedure, shortened: as §1
# E. coli CSH2 (RK1) = experiment: microbe, parasite or virus in culture; type: cell-based; conditions: *E. coli CSH2 (RK1), lactamase-producing strain; 10^6 CFU/ml
# Procedure, shortened: as §1
# E. coli CSH(RE45) = experiment: microbe, parasite or virus in culture; type: cell-based; conditions: *E. coli CSH(RE45), lactamase-producing strain; 10^6 CFU/ml
# Procedure, shortened: as §1
# [1] = Enterobacter cloacae, 16 h, E. cloacae 963, read-out: Minimum Inhibitory Concentration (MIC)
# [2] = Enterobacter cloacae, 963, 16 h, read-out: Minimum Inhibitory Concentration (MIC), E. cloacae 963
# [3] = read-out: Minimum Inhibitory Concentration (MIC)
SMILES,Minimum Inhibitory Concentration (MIC) (Ps. cepacia 23),Minimum Inhibitory Concentration (MIC) (S. marcescens IAM 1184),Minimum Inhibitory Concentration (MIC) (K. pneumoniae No. 42),MIC (E. cloacae 963; [1]),Minimum Inhibitory Concentration (MIC) (P. vulgaris No. 33),Minimum Inhibitory Concentration (MIC) (M. morganii GN5407),Minimum Inhibitory Concentration (MIC) (S. aureus 209P NIHJ-JC1),Minimum Inhibitory Concentration (MIC) (K. oxytoca GN10650),Minimum Inhibitory Concentration (MIC) (E. cloacae Nek 39),Minimum Inhibitory Concentration (MIC) (K. pneumoniae PCI-602),Minimum Inhibitory Concentration (MIC) (S. marcescens No. 16-2),Minimum Inhibitory Concentration (MIC) (E. coli GN5482; 10^6 CFU/ml),Minimum Inhibitory Concentration (MIC) (E. coli NIHJ JC2),Minimum Inhibitory Concentration (MIC) (Ps. aeruginosa AK 109),Minimum Inhibitory Concentration (MIC) (Ps. aeruginosa IF03445),Minimum Inhibitory Concentration (MIC) (A. calcoaceticus No. 4),Minimum Inhibitory Concentration (MIC) (E. coli CSH2 (RK1)),Minimum Inhibitory Concentration (MIC) (E. coli CSH(RE45)),MIC (Ps. cepacia 23),Minimum Inhibitory Concentration (MIC) (P. vulgaris HX-19),further results
"Nc1nc(C(=NOC(C(=O)O)c2ccc(O)c(O)c2)C(=O)NC2C(=O)N3C(C(=O)O)=C(CSc4nnc(-c5ccc(O)c(O)c5)s4)CSC23)cs1 (single isomer, unassigned) [Example 38 DB, disodium 7β-{2-(2-aminothiazol-4-yl)-2-(α-carboxylate-3,4-dihydroxybenzyloxyimino)acetamido]-3-[5-(3,4-dihydroxyphenyl)-1,3,4-thiadiazol-2-yl]thiomethyl-3-cephem-4-carboxylate]",< 0.006 µg/mL,0.1 µg/mL,0.1 µg/mL,0.2 µg/mL,0.1 µg/mL,0.2 µg/mL,1.56 µg/mL,0.1 µg/mL,0.39 µg/mL,< 0.006 µg/mL,6.25 µg/mL,0.78 µg/mL,0.78 µg/mL,0.78 µg/mL,3.12 µg/mL,0.05 µg/mL,0.025 µg/mL,0.0125 µg/mL,,,"MIC (P. vulgaris HX-19; Proteus vulgaris, HX19, 16 h, read-out: Minimum Inhibitory Concentration (MIC)): 0.025 µg/mL; MIC (Ps. aeruginosa AKR17; read-out: Minimum Inhibitory Concentration (MIC), Ps. aeruginosa AKR17, 10^6 CFU/ml): 1.56 µg/mL"
"Nc1nc(C(=NOC(C(=O)O)c2ccccc2)C(=O)NC2C(=O)N3C(C(=O)O)=C(CSc4nc(C(=O)O)c(-c5ccc(O)c(O)c5)s4)CSC23)cs1 (single isomer, unassigned) [Example 51 DA]",,,0.2 µg/mL,0.2 µg/mL,0.39 µg/mL,0.2 µg/mL,100 µg/mL,0.1 µg/mL,,0.0125 µg/mL,,,3.12 µg/mL,1.56 µg/mL,1.56 µg/mL,,0.05 µg/mL,0.1 µg/mL,< 0.006 µg/mL,0.2 µg/mL,"MIC (S. marcescens IAM 1184): 0.1 µg/mL; MIC (E. cloacae Nek 39; Enterobacter cloacae, NEK39, 16 h, read-out: Minimum Inhibitory Concentration (MIC), *E. cloacae Nek 39, lactamase-producing strain): 0.1 µg/mL; MIC (S. marcescens No. 16-2; Serratia marcescens, NO.162, 16 h, read-out: Minimum Inhibitory Concentration (MIC), *S. marcescens No. 16-2, lactamase-producing strain): 1.56 µg/mL; MIC (E. coli GN5482; read-out: Minimum Inhibitory Concentration (MIC), *E. coli GN5482, lactamase-producing strain, 10^6 CFU/ml): 1.56 µg/mL; Minimum Inhibitory Concentration (MIC) (Ps. aeruginosa AKR17; Ps. aeruginosa AKR17, 10^6 CFU/ml): 1.56 µg/mL; MIC (A. calcoaceticus No. 4; Acinetobacter calcoaceticus, NO.4, 16 h, read-out: Minimum Inhibitory Concentration (MIC), A. calcoaceticus No. 4): 0.1 µg/mL"
"Nc1nc(C(=NOC(C(=O)O)c2ccccc2)C(=O)NC2C(=O)N3C(C(=O)O)=C(CSc4nc(C(=O)O)c(-c5ccc(O)c(O)c5)s4)CSC23)cs1 (single isomer, unassigned) [Example 51 DB]",< 0.006 µg/mL,0.05 µg/mL,0.05 µg/mL,,0.0125 µg/mL,0.05 µg/mL,25 µg/mL,0.025 µg/mL,0.05 µg/mL,< 0.006 µg/mL,0.78 µg/mL,0.78 µg/mL,0.39 µg/mL,,,0.1 µg/mL,0.0125 µg/mL,0.0125 µg/mL,,< 0.006 µg/mL,"MIC (E. cloacae 963; [2]): 0.05 µg/mL; MIC (Ps. aeruginosa AK 109): 0.39 µg/mL; MIC (Ps. aeruginosa IF03445; Pseudomonas aeruginosa, IF03445, 16 h, read-out: Minimum Inhibitory Concentration (MIC), Ps. aeruginosa IF03445): 0.39 µg/mL; MIC (Ps. aeruginosa AKR17; [3]): 0.39 µg/mL"
"CC(=O)Oc1ccc(-c2nc(SCC3=C(C(=O)O)N4C(=O)C(NC(=O)C(=NOC(C(=O)O)c5ccccc5)c5csc(N)n5)C4SC3)sc2CC(=O)O)cc1OC(C)=O (single isomer, unassigned) [Example 61 DA]",,,0.1 µg/mL,,0.025 µg/mL,0.05 µg/mL,,0.05 µg/mL,0.1 µg/mL,,0.78 µg/mL,,0.78 µg/mL,,0.39 µg/mL,0.1 µg/mL,0.0125 µg/mL,3.12 µg/mL,< 0.006 µg/mL,< 0.006 µg/mL,"MIC (S. marcescens IAM 1184): 0.05 µg/mL; MIC (E. cloacae 963; [2]): 0.39 µg/mL; MIC (S. aureus 209P NIHJ-JC1; Staphylococcus aureus, 16 h, read-out: Minimum Inhibitory Concentration (MIC)): 25 µg/mL; MIC (K. pneumoniae PCI-602; Klebsiella pneumoniae, PCI602, 16 h, read-out: Minimum Inhibitory Concentration (MIC), K. pneumoniae PCI-602): < 0.006 µg/mL; MIC (E. coli GN5482; [3]): 0.39 µg/mL; MIC (Ps. aeruginosa AK 109): 0.39 µg/mL; MIC (Ps. aeruginosa AKR17; [3]): 0.39 µg/mL"
